Columns and labels:
[1] = molecular target: T1, TRKC(G623R) (Homo sapiens, UniProt Q16288, G623R); assay: HTRF KinEASE-TK kinase activity inhibition assay, TRKC(G623R); type: biochemical; settings: ATP 100 µM
T1 construct: purchased SignalChem N18-12CH-10
Excerpt: (§1) The following method was used to determine the inhibition degrees of the compounds of the present invention on the activity of recombinant human NTRK family kinase in vitro. In this method, HTRF®KinEASE-TK tyrosine kinase kit (article number: 62TK0PEB) of Cisbio company was used, and the principle of the kit was based on time-resolved fluorescence resonance energy transfer (TF-FRET), and the inhibition of the compounds on the activity of the NTRK kinase was reflected by determining a phosphorylation degree of a biotinylated polypeptide substrate mediated by NTRK kinase. For detailed experimental operation, please refer to the kit instruction. Recombinant human wild-type NTRK proteins were purchased from Carna bioscience (the article numbers were TRKA #08-186, TRKB #08-187 and TRKC #08-197 respectively), and recombinant human mutant NTRK proteins were purchased from SignalChem (the article numbers were TRKA G595R #N16-12BG-10, TRKA G667C # N16-12CG-10, and TRKC G623R # N18-12CH-10 respectively).
The experimental methods were operated according to the steps in the kit instruction, and were briefly described as follows: a test compound was first dissolved in DMSO to prepare a storage solution, and then diluted in gradient with a buffer provided in the kit. A final concentration of the test compound in the reaction system ranged from 1,000 nM to 0.004 nM. An ATP Km value concentration of each NTRK protein was determined by using an ATP solution diluted in gradient (Sangon Biotech (Shanghai) Co., Ltd., A600311). According to the Km value obtained, the ATP concentrations in the reaction system were set as 100 µM for TRKA, 10 µM for TRKB, 50 µM for TRKC, 7 µM for TRKA(G595R), 1 µM for TRKA(G667C) and 100 µM for TRKC(G623R). The reaction was carried out in a 384-well microplate. Firstly, the compound and a certain amount of corresponding NTRK protein were added to the wells and incubated for 5 minutes to 10 minutes at room temperature. Then, the ATP solution and the biotinylated polypeptide substrate solution were added to the reaction solution and incubated with shaking at room temperature for 60 minutes. […] After incubation, fluorescence intensity values of each well at an excitation wavelength of 304 nm, and emission wavelengths of 620 nm and 665 nM were determined in a TF-FRET mode on a microplate reader. Compared with the fluorescence intensity ratio of a control group (0.1% DMSO), the percentage inhibition rates of the compound at each concentration were calculated, and the IC50 value of the compound was obtained by performing nonlinear regression analysis for logarithmic value of the compound concentration - inhibition rate by GraphPad Prism 5 software, which can be seen in Table 1. […]

[2] = tested on: H2228 (human lung cancer cells); assay: Cell proliferation assay (CellTiter-Glo), H2228; type: cell-based; settings: NCI-H2228, 72 hours, EML4-ALK fusion
Excerpt: The following method was used to determine the effects of the compounds of the present invention on cell proliferation. H2228 cells (containing EML4-ALK fusion) were purchased from Cell Resource Center of Shanghai Institutes for Biological Sciences, Chinese Academy of Sciences. KARPAS-299 cells (containing NPM-ALK fusion) were purchased from Nanjing COBIOER Biotechnology Co., Ltd. The above two cell lines were used to determine the inhibition of the compounds on cell activities. The cells were cultured in an RPMI 1640 medium containing 10% fetal bovine serum, 100 U penicillin, 100 µg/mL streptomycin, and 1 mM Sodium Pyruvate. The cells were cultured in a 5% CO2 incubator at 37°C. The activity of the cells was determined by CellTiter-Glo® Luminescent Cell Viability Assay kit (Promega, article number: G7573).
The experimental methods were operated according to the steps in the kit instruction, and were briefly described as follows: a test compound was first dissolved in DMSO to prepare a storage solution, and then diluted in gradient with the corresponding cell culture medium to prepare a test sample. […] After the culture, 50 µL of CellTiter-Glo detection solution was added to each well, shaken for 5 minutes, and then stood for 10 minutes, and the luminescence values of each well were read on the microplate reader using a Luminance mode. […]

[3] = molecular target: T2, TRKA(G667C) (Homo sapiens, UniProt P04629, G667C); assay: HTRF KinEASE-TK kinase activity inhibition assay, TRKA(G667C); type: biochemical; settings: ATP 1 µM
T2 construct: purchased SignalChem N16-12CG-10
T2 sequence (P04629 33-796 G667C): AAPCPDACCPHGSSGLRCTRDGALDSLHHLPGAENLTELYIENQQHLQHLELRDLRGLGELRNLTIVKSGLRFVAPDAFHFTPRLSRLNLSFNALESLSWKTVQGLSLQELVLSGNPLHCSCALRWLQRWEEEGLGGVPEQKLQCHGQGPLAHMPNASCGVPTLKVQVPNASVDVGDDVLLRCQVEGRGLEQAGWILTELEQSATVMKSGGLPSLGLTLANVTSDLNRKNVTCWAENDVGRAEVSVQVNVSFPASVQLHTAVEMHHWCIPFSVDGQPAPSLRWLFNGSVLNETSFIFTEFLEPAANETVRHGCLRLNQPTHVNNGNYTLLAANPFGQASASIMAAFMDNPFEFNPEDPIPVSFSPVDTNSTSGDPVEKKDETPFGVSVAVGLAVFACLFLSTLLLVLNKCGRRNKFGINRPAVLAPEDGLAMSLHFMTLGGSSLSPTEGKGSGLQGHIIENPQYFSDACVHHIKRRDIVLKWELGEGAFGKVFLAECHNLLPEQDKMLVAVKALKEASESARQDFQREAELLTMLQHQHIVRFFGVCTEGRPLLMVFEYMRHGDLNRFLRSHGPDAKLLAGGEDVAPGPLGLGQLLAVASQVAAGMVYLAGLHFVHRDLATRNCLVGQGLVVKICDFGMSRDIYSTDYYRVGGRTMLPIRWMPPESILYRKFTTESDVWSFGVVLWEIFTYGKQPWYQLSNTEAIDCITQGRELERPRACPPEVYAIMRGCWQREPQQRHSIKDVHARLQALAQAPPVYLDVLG
Excerpt: as §1
The experimental methods were operated according to the steps in the kit instruction, and were briefly described as follows: a test compound was first dissolved in DMSO to prepare a storage solution, and then diluted in gradient with a buffer provided in the kit. A final concentration of the test compound in the reaction system ranged from 1,000 nM to 0.004 nM. An ATP Km value concentration of each NTRK protein was determined by using an ATP solution diluted in gradient (Sangon Biotech (Shanghai) Co., Ltd., A600311). According to the Km value obtained, the ATP concentrations in the reaction system were set as 100 µM for TRKA, 10 µM for TRKB, 50 µM for TRKC, 7 µM for TRKA(G595R), 1 µM for TRKA(G667C) and 100 µM for TRKC(G623R). The reaction was carried out in a 384-well microplate. Firstly, the compound and a certain amount of corresponding NTRK protein were added to the wells and incubated for 5 minutes to 10 minutes at room temperature. Then, the ATP solution and the biotinylated polypeptide substrate solution were added to the reaction solution and incubated with shaking at room temperature for 60 minutes. Then, an anti-phosphorylated tyrosine antibody coupled with a europium compound and streptavidin coupled with modified allophycocyanin XL665 were added to the reaction, and continuously incubated with shaking at room temperature for 1 hour. After incubation, fluorescence intensity values of each well at an excitation wavelength of 304 nm, and emission wavelengths of 620 nm and 665 nM were determined in a TF-FRET mode on a microplate reader. Compared with the fluorescence intensity ratio of a control group (0.1% DMSO), the percentage inhibition rates of the compound at each concentration were calculated, and the IC50 value of the compound was obtained by performing nonlinear regression analysis for logarithmic value of the compound concentration - inhibition rate by GraphPad Prism 5 software, which can be seen in Table 1. Table 1 IC50 data of the compounds of the present invention on TRK enzyme activity inhibition

T1 sequence (Q16288 32-839 G623R): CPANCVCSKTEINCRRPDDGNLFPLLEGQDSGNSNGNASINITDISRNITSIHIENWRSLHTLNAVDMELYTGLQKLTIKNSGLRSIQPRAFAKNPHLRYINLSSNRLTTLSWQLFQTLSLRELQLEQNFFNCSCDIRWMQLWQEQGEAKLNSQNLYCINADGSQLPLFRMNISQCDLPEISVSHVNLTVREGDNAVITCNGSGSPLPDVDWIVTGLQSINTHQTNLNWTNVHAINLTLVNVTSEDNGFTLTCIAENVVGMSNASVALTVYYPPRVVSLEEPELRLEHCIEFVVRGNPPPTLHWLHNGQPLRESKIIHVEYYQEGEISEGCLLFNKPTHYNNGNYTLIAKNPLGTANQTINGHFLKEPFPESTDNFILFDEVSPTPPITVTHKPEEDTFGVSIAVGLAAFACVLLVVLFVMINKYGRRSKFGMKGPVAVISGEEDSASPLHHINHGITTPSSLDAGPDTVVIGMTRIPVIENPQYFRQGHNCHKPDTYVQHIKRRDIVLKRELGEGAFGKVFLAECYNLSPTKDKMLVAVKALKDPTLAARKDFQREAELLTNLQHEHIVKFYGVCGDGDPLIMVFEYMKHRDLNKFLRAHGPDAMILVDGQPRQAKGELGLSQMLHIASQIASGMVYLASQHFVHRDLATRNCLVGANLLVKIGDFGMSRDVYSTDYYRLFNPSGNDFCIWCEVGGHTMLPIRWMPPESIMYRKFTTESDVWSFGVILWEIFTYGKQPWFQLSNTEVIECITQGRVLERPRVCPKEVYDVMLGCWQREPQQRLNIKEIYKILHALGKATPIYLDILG

SMILES	IC50 [1]	IC50 [2]	IC50 [3]
C[C@H]1Nc2ccn3ncc(c3n2)C(=O)NC[C@@]2(C)Cc3cc(F)cc1c3O2 [Example 8, (3R,11R)-6-fluoro-3,11-dimethyl-10-oxa-2,13,17,1 8,21-pentaazapentacyclo[13.5.2.1^8,11.0^4,9.0^18,22]tric osa-1(21),4,6,8,15(22),16,19-heptaen-14-one]	13.5 nM	164 nM	–
C[C@H]1Nc2ccn3nc(N)c(c3n2)C(=O)NC[C@@]2(C)Cc3cc(F)cc1c3O2 [Example 25, (3R,11R)-16-amino-6-fluoro-3,11-dimethyl-10-oxa-2,13,17,18,21-pentaazapentacyclo[13.5.2.1^8,11.0^4,9. 0^18,22]tricosa-1(21),4,6,8,15(22),16,19-heptaen-14-one]	–	–	9.5 nM

Reference: patent publication EP3974434B1, “MACROLIDE DERIVATIVES, PREPARATION METHOD AND APPLICATION THEREOF” (Zhejiang Hisun Pharmaceutical Co., Ltd., priority 2019, dated 2020)
